Entries after “also recorded” stand apart in the source; their conditions may differ.
Test system: retinal explant neurite outgrowth
Assay: Retina (alone) explant culture with and without recombinant MHC I (rsMHC I)
Format: cell-based, mouse
Conditions: for neurite outgrowth with rsMHC I plus compound compared with control levels / neurite outgrowth in cultures containing rsMHC I, compound added vs rsMHC I alone: ACPD 50 uM, cAMP 20 uM, Forskolin 5 uM; for overall protection against the effects of rsMHC I (summary): FIG. 5; for neurite outgrowth in cultures containing rsMHC I, compound added vs rsMHC I alone: 3 days
Procedure: To rule out the possibility that the MHC I-tg thalami inhibit retinal growth indirectly due to an alteration in the milieu of neuroactive molecules they secrete, wt retinas were cultured alone, in the presence, or absence of recombinantly produced MHC I D^b (rMHC I). The rMHC I was obtained by transfecting COS cells with a recombinant plasmid that directs the expression of a MHC I D^b lacking a membrane anchor and harvesting the conditioned media.
A truncated MHC I ^Db mini-gene (containing exons 1-4 plus a stop codon) was subcloned into pIRES (Invitrogen). Due to the lack of a transmembrane spanning region (exons 5 and 6), this MHC I molecule is secreted. COS cells were transfected (using lipofectamine, GIBCO) with the parental plasmid, or the plasmid encoding soluble MHC I D^b. […] Forty eight hours later, the conditioned media was harvested and added to fresh explant co-cultures of wt retina and thalamus at final dilutions of 1:1, 1:4, 1:20 or 1:100. To some cultures, monoclonal antibodies to MHCI D^b or D^k were added to both the matrigel (before its solidification) and the media (0.005 mg/ml). Both the conditioned media and the antibodies were coded. The co-cultures were incubated for 4-5 days, fixed, and scored in a blinded fashion as described above. Duplicates of each group were tested simultaneously in 4 separate experiments.
E14 day embryos from C57Bl6 and Balb/c mice were dissected in Leibovitz's L-15 media (Gibco BRL). The retinas were isolated and placed in a matrigel matrix (Growth Factor Reduced Basement membrane matrix, Collaborative Biomedical Products) in a chamber slide (Fisher LabTech). The slides were then incubated at 37° C. for 60 minutes to solidify the gel. Neurobasal medium (Gibco BRL), containing L-glutamine, antibiotics and 1× B27 supplement) was added to each chamber (0.25 ml). Inhibition of axon outgrowth by rsMHC I was tested by addition of conditioned culture media from COS cells containing rsMHC I or control media to the normal culture media. Compounds that modulate cAMP levels were added at the following concentrations to the matrigel and the culture media: Forskolin (5 uM), a drug that activates adenyl cyclase and endogenous production of cAMP; and Rp-cAMPS (20 uM), the R diasteriomer of adenosine 3′,5′-(cyclic) phosphorothioate, a non-hydrolyzable antagonist of cAMP. The cultures were incubated further at 37° C., 5% CO2. After incubating for 3 days, the experiment was terminated by replacing the buffer with 4% PFA and storing the slides at 4° C. Statistical Analysis was done by Student's test.

Compound | neurite outgrowth with rsMHC I plus compound compared with control levels | overall protection against the effects of rsMHC I (summary) | neurite outgrowth in cultures containing rsMHC I, compound added vs rsMHC I alone (Rp-cAMPS 20 uM) | retinal explant outgrowth in control cultures (media alone, no rsMHC I) (Rp-cAMPS 20 uM) | neurite outgrowth in cultures containing rsMHC I, compound added vs rsMHC I alone (Rp-cAMPS 20 uM, listed as Rp-cAMPs)
N[C@@]1(C(=O)O)CC[C@@H](C(=O)O)C1 [ACPD, 1-amino-(1S,3R)-cyclo pentanedicarboxylic acid] | did not return to control levels | partially protective | significantly enhanced neurite outgrowth; also recorded: partially neutralize the effects of rsMHC I | – | –
Nc1ncnc2c1ncn2[C@@H]1O[C@@H]2CO[P@@](O)(=S)O[C@H]2[C@H]1O [Rp-cAMPS, R diasteriomer of adenosine 3′,5′-(cyclic) phosphorothioate] | – | very efficient at blocking the effects of rsMHC I | completely prevented the inhibitory effects of rsMHC I; also recorded: can reverse this inhibitory effect | no effect | completely prevented the inhibitory effects of rMHC I; also recorded: prevented the inhibitory action of rMHC I
Nc1ncnc2c1ncn2[C@@H]1O[C@@H]2COP(=O)(O)O[C@H]2[C@H]1O [cAMP, cyclic adenosine monophosphate] | not statistically different from control levels | partially protective | significantly enhanced neurite outgrowth; also recorded: partially neutralize the inhibitory action of rMHC I | – | –

From US7553484B2, “Modulating neuronal outgrowth via the major histocompatibility complex class I (MHC I) molecule” (The Regents of the University of California, priority 2001, dated 2009)
